Data reported in patent US20190246647A1, “COMPOSITIONS AND RELATED METHODS FOR MODULATING ENDOSYMBIONTS” (Flagship Pioneering Innovations V, Inc., priority 2017, published 2019).
{Cy3} = Cy3 dye attached by azide-DBCO click chemistry

Test system: Myzus persicae
Experiment: Cy3-PNA in artificial diet: aphid survival
Format: in vivo
Conditions: 0.5 to 10 mg/L in artificial diet; paper example
Experimental: Cy3-PNA solutions are formulated with 0, 0.5, 1, 5 or 10 mg/L of Cy3-PNA from Example 11 in 10 mL of 0.5% sucrose and essential amino acids.
To prepare for the treatment, aphids are grown in a lab environment and medium. In a climate-controlled room (16 h light photoperiod; 60±5% RH; 20±2° C.), plants are grown in a mixture of vermiculite and perlite and are infested with aphids. To limit maternal effects or health differences between plants, 5-10 adults from different plants are distributed among 10 two-week-old plants, and allowed to multiply to high density for 5-7 days. For experiments, second and third instar aphids are collected from healthy plants and divided into treatments so that each treatment receives approximately the same number of individuals from each of the collection plants.
Wells of a 96-well plate are filled with 200 μl of artificial aphid diet (Febvay et al., Canadian Journal of Zoology 66(11):2449-2453, 1988) and the plate is covered with parafilm to make a feeding sachet. Artificial diet is either mixed with the solution of sterile water with 0.5% sucrose and essential amino acids only as a negative control, or mixed with Cy3-PNA solutions. Cy3-PNA solutions are mixed with artificial diet to obtain final concentrations between 0.5 to 10 mg/L. […]

With “Cy3-gaatgcagctgc (antisense GAATGCAGCTGC; all peptide nucleic acid (PNA), 5' {Cy3}) [Bcr1 specific Cy3-PNA, antisense PNA against Bcr1 joined to Cy3 dye through click chemistry]” the “survival rate of aphids vs control” value was “decreased”.
